From patent publication US7390831B2, “Tetracyclic steroid derivatives useful as progesterone receptor modulators” (Janssen Pharmaceutica N.V., priority 2006, dated 2008)
Like-named read-outs stand apart in the source and are kept apart here.

What was measured:
[1] = tested on: A549 Human lung carcinoma cells; experiment: A549 Human Lung Cell Assay (transfected cells, dexamethasone challenge, luciferase read-out); format: cell-based; conditions: test compound 10 min then dexamethasone challenge, 24 h, Luc-assay, read-out: A 549 IC50
Experimental: A549Human Lung Cell Assay
A549Human lung carcinoma cells were grown in F-12K Nutrient Mixture containing 10% (v/v) fetal bovine serum (FBS; Invitrogen), 2 mM glutamine and 0.15% sodium dicarbonate (Invitrogen).
A549 cells were split 1 to 3 in 175 cm tissue culture flask. The cells were incubated at 37° C. in CO2 incubator until the cells were 95% confluent (typically 24-30 hours).
The following solutions were prepared in sterile tubes: (a) Solution A 1.5 μg/ml of DNA in 8.5 ml OPTI-MEM I Reduced Serum Medium. (GIBCO cat# 31985) and (b) Solution B: 6 μl/ml of DMRIE-C Reagent into […] OPTI-MEM I. The two solutions were combined and mixed gently, then incubated at room temperature for 40 minutes.
The A549 cells prepared above were washed with […] of OPTI-MEM I. The medium was removed and 17 ml of the lipid-DNA complex solution was overlayed onto cells. The cells ere then incubated for 16 h at 37° C. in CO2 incubator. The DNA-containing medium was removed and 30 ml of growth medium was added. (5% Charcoal treated FBS) After 5-6 h, the cells were seeded in a 96 well plate and the cells incubated overnight at 37° C. in CO2 incubator.
To each well was then added 5 μl of test compounds and the cells incubated at 37° C. for 10 min. 5 μL of dexamathasone (CAS [50-02-2]), was then added to each well for challenger and the cells incubated at 37° C. in CO2 incubator for 24 h. 100 μl of Luc-assay buffer was then added into each cell well and the cells incubated for 30 min at room temperature. A 150 μL sample from each well was then transferred into a DYNEX Microlitel plate and read on Top-counter.
(§1) Representative compounds of the present invention were tested according to the procedures described in Examples 45 and 46 above, with results as listed in Table 2 below.

[2] = tested on: T47D human breast cancer cells; experiment: T47D Human Breast Cancer Cells Assay (alkaline phosphatase, luminescence); format: cell-based
Experimental: T47D Human Breast Cancer Cells Assay
T47D human breast cancer cells were grown in RPMI medium without phenol red (Invitrogen) containing 10% (v/v) heat-inactivated fetal bovine serum (FBS; Hyclone), 1% (v/v) penicillin-streptomycin (Invitrogen), 1% (w/v) glutamine (Invitrogen), and […] insulin (Sigma). Incubation conditions were 37° C. in a humidified 5% (v/v) carbon dioxide environment.
The cells were plated in 96-well tissue culture plates at 10,000 cells per well in assay medium [RPMI medium without phenol red (Invitrogen) containing 5% (v/v) charcoal-treated FBS (Hyclone) and 1% (v/v) penicillin-streptomycin (Invitrogen)]. Two days later, the medium was decanted and test compound or control were added at a final concentration of 0.1% (v/v) dimethyl sulfoxide in fresh assay medium. Twenty-four hours later, an alkaline phosphatase assay was performed using a SEAP kit (BD Biosciences Clontech, Palo Alto, Calif.). Briefly, the medium was decanted and the cells were fixed for 30 minutes at room temperature with 5% (v/v) formalin (Sigma). The cells were washed once with room temperature Hank's buffered saline solution (Invitrogen). Equal volumes (0.05 mL) of 1× Dilution Buffer, Assay Buffer and 1:20 substrate/enhancer mixture were then added. After 1 hour incubation at room temperature in the dark, the lysate was transferred to a white 96-well plate (Dynex) and luminescence was read using a LuminoSkan Ascent (Thermo Electron, Woburn, Mass.).
as §1

[3] = read-out: T47D IC50, T47D cells, 24 h with test compound, alkaline phosphatase assay (SEAP kit)
[4] = Homo sapiens, T47D, 24 h, read-out: T47D IC50 (nM), T47D cells, 24 h with test compound, alkaline phosphatase assay (SEAP kit)

Compound	IC50 ([1]; A549 cells)	IC50 [2, 3]	IC50 ([1]; Homo sapiens, A549, A549 cells)	IC50 [2, 4]	IC50 ([2]; T47D cells, 24 h with test compound, alkaline phosphatase assay (SEAP kit), read-out: T47D IC50)
COc1ccc([C@H]2OC[C@@]3(C)C(CC[C@@]3(O)C#Cc3ccccc3)C3CCC4=CC(=O)CCC4=C32)cc1 (stereo in doubt) [Compound 23, 1-Hydroxy-10-(4-methoxy-phenyl)-12a-methyl-1-phenylethynyl-2,3,3a,3b,4,5,9,10,12,12a-decahydro-1H,8H-11-oxa-naphtho[2,1-e]azulen-7-one]	237 nM	260 nM			
C=C(C)[C@]1(O)CCC2C3CCC4=CC(=O)CCC4=C3[C@@H](c3ccc(N(C)C)cc3)OC[C@@]21C (stereo partly shown) [Compound 1, 10-(4-Dimethylamino-phenyl)-1-hydroxy-1-isopropenyl-12a methyl-2,3,3a,3b,4,5,9,10,12,12a-decahydro-1H,8H-11-oxa-naphtho[2,1 e]azulen-7-one]			50.1 nM	0.4 nM	
C=C(C)[C@]1(O)CCC2C3CCC4=CC(=O)CCC4=C3[C@@H](c3ccc(SC)cc3)OC[C@@]21C (stereo partly shown) [Compound 2, 1-Hydroxy-1-isopropenyl-12a-methyl-10-(4-methylsulfanyl-phenyl)-2,3,3a,3b,4,5,9,10,12,12a-decahydro-1H,8H-11-oxa-naphtho[2,1-e]azulen-7-one]			58.2 nM	5.12 nM	
CSc1ccc(C2OCC3(C)C(CCC3(O)C(F)(F)C(F)(F)F)C3CCC4=CC(=O)CCC4=C23)cc1 (stereo not shown) [Compound 4, 1-Hydroxy-12a-methyl-10-(4-methylsulfanyl-phenyl)-1-pentafluoroethyl-2,3,3a,3b4,5,9,10,12,12a-decahydro-1H,8H-11-oxa-naphtho[2,1-e]azulen-7-one]	68.7 nM				33.2 nM
CSc1ccc([C@H]2OC[C@@]3(C)C(CC[C@@]3(O)C(F)(F)C(F)(F)F)C3CCC4=CC(=O)CCC4=C32)cc1 (stereo partly shown) [Compound 5]			7.06 nM	54 nM	
COc1ccc([C@H]2OC[C@@]3(C)C(CC[C@@]3(O)C#Cc3ccc(C(F)(F)F)cc3)C3CCC4=CC(=O)CCC4=C32)cc1 (stereo partly shown) [Compound 6, 1-Hydroxy-10-(4-methoxy-phenyl)-12a-methyl-1-(4-trifluoromethyl-phenylethynyl)-2,3,3a,3b,4,5,9,10,12,12a-decahydro-1H,8H-11-oxa-naphtho[2,1-e]azulen-7-one]	109 nM	83 nM			
CC#C[C@]1(O)CCC2C3CCC4=CC(=O)CCC4=C3[C@@H](c3ccc(N(C)C)cc3)OC[C@@]21C (stereo partly shown) [Compound 7, 10-(4-Dimethylamino-phenyl)-1-hydroxy-12a-methyl-1-prop-1-ynyl-2,3,3a,3b,4,5,9,10,12,12a-decahydro-1H,8H-11-oxa-naphtho[2,1-e]azulen-7-one]			16.2 nM	116 nM	
COc1ccc([C@H]2OC[C@@]3(C)C(CC[C@@]3(O)C#Cc3ccc(C(C)(C)C)cc3)C3CCC4=CC(=O)CCC4=C32)cc1 (stereo partly shown) [Compound 9, 1-(4-tert-Butyl-phenylethynyl)-1-hydroxy-10-(4-methoxy-phenyl)-12a-methyl-2,3,3a,3b,4,5,9,10,12,12a-decahydro-1H,8H-11-oxa-naphtho[2,1-e]azulen-7-one]			626 nM	264 nM	
CN(C)c1ccc([C@H]2OC[C@]3(C)C(=O)CCC3C3CCC4=CC(=O)CCC4=C32)cc1 (stereo partly shown) [Compound 10, 10-(4-Dimethylamino-phenyl)-12a-methyl-2,3,3a,3b,4,5,9,10,12,12a-decahydro-8H-11-oxa-naphtho[2,1-e]azulene-1,7-dione]			> 3000 nM	1800 nM	
CSc1ccc([C@H]2OC[C@]3(C)C(C#Cc4ccccc4)=CCC3C3CCC4=CC(=O)CCC4=C32)cc1 (stereo partly shown) [Compound 11, 12a-Methyl-10-(4-methylsulfanyl-phenyl)-1-phenylethynyl 3a,3b,4,5,9,10,12,12a-octahydro-3H,8H-11-oxa-naphtho[2,1-e]azulen-7-one]			> 3000 nM	> 1000 nM	
C#C[C@]1(O)CCC2C3CCC4=CC(=O)CCC4=C3[C@@H](c3ccc(OC)cc3)OC[C@@]21C (stereo partly shown) [Compound 12, 1-Ethynyl-1-hydroxy-10-(4-methoxy-phenyl)-12a-methyl-2,3,3a,3b,4,5,9,10,12,12a-decahydro-1H,8H-11-oxa-naphtho[2,1-e]azulen-7-one]			118 nM	> 1000 nM	
C#C[C@]1(O)CCC2C3CCC4=CC(=O)CCC4=C3[C@H](c3ccc(OC)cc3)OC[C@@]21C (stereo partly shown) [Compound 13, 1-Ethynyl-1-hydroxy-10-(4-methoxy-phenyl)-12a-methyl 2,3,3a,3b,4,5,9,10,12,12a-decahydro-1H,8H-11-oxa-naphtho[2,1-e]azulen-7-one]			367 nM	> 1000 nM	
CC#C[C@]1(O)CCC2C3CCC4=CC(=O)CCC4=C3[C@@H](c3ccc(OC)cc3)OC[C@@]21C (stereo partly shown) [Compound 14, 1-Hydroxy-10-(4-methoxy-phenyl)-12a-methyl-1-prop-1-ynyl-2,3,3a,3b,4,5,9,10,12,12a-decahydro-1H,8H-11-oxa-naphtho[2,1-e]azulen-7-one]			46 nM	> 1000 nM	
CC#C[C@]1(O)CCC2C3CCC4=CC(=O)CCC4=C3[C@H](c3ccc(OC)cc3)OC[C@@]21C (stereo partly drawn) [Compound 15, 1-Hydroxy-10-α(4-methoxy-phenyl)-12a-methyl-1-prop-1-ynyl-2,3,3a,3b,4,5,9,10,12,12a-decahydro-1H,8H-11-oxa-naphtho[2,1-e]azulen-7-one]			583 nM	> 1000 nM	
COc1ccc([C@H]2OC[C@@]3(C)C(CC[C@@]3(O)C#Cc3ccccc3)C3CCC4=CC(=O)CCC4=C32)cc1 (stereo partly shown) [Compound 16, 1-Hydroxy-10-(4-methoxy-phenyl)-12a-methyl-1-phenylethynyl-2,3,3a,3b,4,5,9,10,12,12a-decahydro-1H,8H-11-oxa-naphtho[2,1-e]azulen-7-one]	> 3000 nM	> 1000 nM			
C=CC[C@]1(O)CCC2C3CCC4=CC(=O)CCC4=C3[C@@H](c3ccc(OC)cc3)OC[C@@]21C (stereo partly shown) [Compound 17, 1-Allyl-1-hydroxy-10-(4-methoxy-phenyl)-12a-methyl 2,3,3a,3b,4,5,9,10,12,12a-decahydro-1H,8H-11-oxa-naphtho[2,1-e]azulen-7-one]			114 nM	> 1000 nM	
C=CC[C@]1(O)CCC2C3CCC4=CC(=O)CCC4=C3[C@H](c3ccc(OC)cc3)OC[C@@]21C (stereo partly drawn) [Compound 18, 1-Allyl-1-hydroxy-10α-(4-methoxy-phenyl)-12a-methyl 2,3,3a,3b,4,5,9,10,12,12a-decahydro-1H,8H-11-oxa-naphtho[2,1-e]azulen-7-one]			> 3000 nM	> 1000 nM	
COc1ccc([C@H]2OC[C@@]3(C)C(CC[C@@]3(O)C#CC(F)(F)F)C3CCC4=CC(=O)CCC4=C32)cc1 (stereo partly shown) [Compound 19, 1-Hydroxy-10-(4-methoxy-phenyl)-12a-methyl-1-trifluoroprop-1-ynyl-2,3,3a,3b,4,5,9,10,12,12a-decahydro-1H,8H-11-oxa-naphtho[2,1-e]azulen-7-one]			> 3000 nM	> 1000 nM	
COc1ccc([C@@H]2OC[C@@]3(C)C(CC[C@@]3(O)C#CC(F)(F)F)C3CCC4=CC(=O)CCC4=C32)cc1 (stereo partly shown) [Compound 20, 1-Hydroxy-10-[…]-(4-methoxy-phenyl)-12a-methyl-1-trifluoroprop-1-ynyl-2,3,3a,3b,4,5,9,10,12,12a-decahydro-1H,8H-11-oxa-naphtho[2,1-e]azulen-7-one]			> 3000 nM	> 1000 nM	
COc1ccc([C@H]2OC[C@@]3(C)C(CC[C@@]3(O)C#Cc3ccc(C(F)(F)F)cc3)C3CCC4=CC(=O)CCC4=C32)cc1 (stereo partly shown) [Compound 21, 1-Hydroxy-10-(4-methoxy-phenyl)-12a-methyl-1-(4-trifluoromethylphenylethynyl)-2,3,3a,3b,4,5,9,10,12,12a-decahydro-1H,8H-11-oxa-naphtho[2,1-e]azulen-7-one]	> 1000 nM	> 1000 nM			
